From patent EP0089538A1, “Optically active derivatives of phenoxy-benzoic acid, process for their preparation and their use as herbicides” (BAYER AG, priority 1982, dated 1983)

Columns and labels:
Type in all cases: in vivo
Mais [1] = test: Pre-emergence test; conditions: % damage vs untreated control after three weeks
Excerpt: (§1) Pre-emergence-Test Lösungsmittel: 5 Gewichtsteile Aceton Emulgator: 1 Gewichtsteil Alkylarylpolyglycolether
(§2) Zur Herstellung einer zweckmäßigen Wirkstoffzubereitung vermischt man 1 Gewichtsteil Wirkstoff mit der angegebenen Menge Lösungsmittel, gibt die angegebene Menge Emulgator zu und verdünnt das Konzentrat mit Wasser auf die gewünschte Konzentration.
(§3) Samen der Testpflanzen werden in normalen Boden ausgesät und nach 24 Stunden mit der Wirkstoffzubereitung begossen. Dabei hält man die Wassermenge pro Flächeneinheit zweckmäßigerweise konstant. Die Wirkstoffkonzentration in der Zubereitung spielt keine Rolle, entscheidend ist nur die Aufwandmenge des Wirkstoffs pro Flächeneinheit. Nach drei Wochen wird der Schädigungsgrad der Pflanzen bonitiert in % Schädigung im Vergleich zur Entwicklung der unbehandelten Kontrolle. Es bedeuten: • 0 % = keine Wirkung (wie unbehandelte Kontrolle) 100 % = totale Vernichtung

Soja [2] = test: Pre-emergence test; conditions: % damage vs untreated control after three weeks
Excerpt: as §1, §2, §3

Monocotyledoneae [3] = test: Pre-emergence test; conditions: average effect on several monocots, % damage vs untreated control after three weeks
Excerpt: as §1, §2, §3

Dicotyledoneae [4] = test: Pre-emergence test; conditions: average effect on several dicots, % damage vs untreated control after three weeks
Excerpt: as §1, §2, §3

Rüben [5] = test: Pre-emergence test; conditions: % damage vs untreated control after three weeks
Excerpt: as §1, §2, §3

Mais [6] = test: Post-emergence test; conditions: % damage vs untreated control after three weeks
Excerpt: (§4) Post-emergence-Test Lösungsmittel: 5 Gewichtsteile Aceton Emulgator : 1 Gewichtsteil Alkylarylpolyglycolether
as §2
(§5) Mit der Wirkstoffzubereitung spritzt man Testpflanzen, welche eine Höhe von 5 - 15 cm haben so, daß die jeweils gewünschten Wirkstoffmengen pro Flächeneinheit ausgebracht werden. Die Konzentration der Spritzbrühe wird so gewählt, daß in 2000 1 Wasser/ha die jeweils gewünschten Wirkstoffmengen ausgebracht werden. Nach drei Wochen wird der Schädigungsgrad der Pflanzen bonitiert in % Schädigung im Vergleich zur Entwicklung der unbehandelten Kontrolle. Es bedeuten: • 0 % = keine Wirkung (wie unbehandelte Kontrolle) 100 % = totale Vernichtung

Soja [7] = test: Post-emergence test; conditions: % damage vs untreated control after three weeks
Excerpt: as §4, §2, §5

Monocotyledoneae [8] = test: Post-emergence test; conditions: average effect on several monocots, % damage vs untreated control after three weeks
Excerpt: as §4, §2, §5

Dicotyledoneae [9] = test: Post-emergence test; conditions: average effect on several dicots, % damage vs untreated control after three weeks
Excerpt: as §4, §2, §5

Rüben [10] = test: Post-emergence test; conditions: % damage vs untreated control after three weeks
Excerpt: as §4, §2, §5

Testpflanzen [11] = test: Pre-emergence test, overall comparison with racemates; conditions: compared with the corresponding racemic compounds (A) and (B)
Excerpt: as §1, §2, §3

Testpflanzen [12] = test: Post-emergence test, overall comparison with racemates; conditions: compared with the corresponding racemic compounds (A) and (B)
Excerpt: as §4, §2, §5

Compound | Wirkung (in %) Mais (Mais [1]; 1 kg/ha) | Wirkung (in %) Soja (Soja [2]; 1 kg/ha) | Wirkung (in %) Monocotyledoneae (Monocotyledoneae [3]; 1 kg/ha) | Wirkung (in %) Dicotyledoneae (Dicotyledoneae [4]; 1 kg/ha) | Wirkung (in %) Rüben (Rüben [5]; 1 kg/ha) | Wirkung (in %) Mais (Mais [6]; 1 kg/ha) | Wirkung (in %) Soja (Soja [7]; 1 kg/ha) | Wirkung (in %) Monocotyledoneae (Monocotyledoneae [8]; 1 kg/ha) | Wirkung (in %) Dicotyledoneae (Dicotyledoneae [9]; 1 kg/ha) | Wirkung (in %) Rüben (Rüben [10]; 1 kg/ha) | herbizide Wirksamkeit (Testpflanzen [11]) | herbizide Wirksamkeit (Testpflanzen [12]) | also measured
CCOC(=O)C(C)OC(=O)c1cc(Oc2c(Cl)cc(C(F)(F)F)cc2Cl)ccc1[N+](=O)[O-] (racemic) [(A), 5-(2,6-Dichlor-4-trifluormethyl-phenoxy)-2-nitro-benzoesäure-(1-ethoxycarbonyl-ethyl)-ester, reference compound] | 10% | 40% | 69,3% | 95,6% | 100% | 95% | 100% | 92% | 100% | 100% |  |  | 
CCOC(=O)C(C)OC(=O)c1cc(Oc2ccc(C(F)(F)F)cc2Cl)ccc1[N+](=O)[O-] (racemic) [(B), 5-(2-Chlor-4-trifluormethyl-phenoxy)-2-nitro-benzoesäure-(1-ethoxycarbonylethyl)-ester, reference compound] | 0% | 0% | 61,4% | 81,4% | 100% | 95% | 99% | 89,1% | 99,9% | 100% |  |  | 
CCOC(=O)[C@H](C)OC(=O)c1cc(Oc2c(Cl)cc(C(F)(F)F)cc2Cl)ccc1[N+](=O)[O-] [(1), 5-(2,6-Dichlor-4-trifluor-methyl-phenoxy)-2-nitrobenzoesäure-(1-ethoxycarbonyl-ethyl)-ester] |  |  |  |  |  |  |  |  |  |  | bessere herbizide Wirksamkeit | bessere herbizide Wirksamkeit | Wirkung (in %) Mais (Mais [1]; 0,45 kg/ha): 0%; Wirkung (in %) Soja (Soja [2]; 0,45 kg/ha): 10%; Wirkung (in %) Monocotyledoneae (Monocotyledoneae [3]; 0,45 kg/ha): 42,1%; Wirkung (in %) Dicotyledoneae (Dicotyledoneae [4]; 0,45 kg/ha): 88,6%; Wirkung (in %) Rüben (Rüben [5]; 0,45 kg/ha): 99%; Wirkung (in %) Mais (Mais [6]; 0,45 kg/ha): 95%; Wirkung (in %) Soja (Soja [7]; 0,45 kg/ha): 100%; Wirkung (in %) Monocotyledoneae (Monocotyledoneae [8]; 0,45 kg/ha): 89,9%; Wirkung (in %) Dicotyledoneae (Dicotyledoneae [9]; 0,45 kg/ha): 99,9%; Wirkung (in %) Rüben (Rüben [10]; 0,45 kg/ha): 100%
CCOC(=O)[C@H](C)OC(=O)c1cc(Oc2ccc(C(F)(F)F)cc2Cl)ccc1[N+](=O)[O-] [(2), 5-(2-Chlor-4-trifluormethyl-phenoxy)-2-nitro-benzoesäure-(1-ethoxycarbonyl-ethyl)-ester] |  |  |  |  |  |  |  |  |  |  | bessere herbizide Wirksamkeit | bessere herbizide Wirksamkeit | Wirkung (in %) Mais (Mais [1]; 0,51 kg/ha): 0%; Wirkung (in %) Soja (Soja [2]; 0,51 kg/ha): 0%; Wirkung (in %) Monocotyledoneae (Monocotyledoneae [3]; 0,51 kg/ha): 74,1%; Wirkung (in %) Dicotyledoneae (Dicotyledoneae [4]; 0,51 kg/ha): 77,1%; Wirkung (in %) Rüben (Rüben [5]; 0,51 kg/ha): 99%; Wirkung (in %) Mais (Mais [6]; 0,51 kg/ha): 100%; Wirkung (in %) Soja (Soja [7]; 0,51 kg/ha): 99%; Wirkung (in %) Monocotyledoneae (Monocotyledoneae [8]; 0,51 kg/ha): 83,3%; Wirkung (in %) Dicotyledoneae (Dicotyledoneae [9]; 0,51 kg/ha): 99,9%; Wirkung (in %) Rüben (Rüben [10]; 0,51 kg/ha): 100%
